According to patent publication US7135466B2 (Kirin Beer Kabushiki Kaisha, priority 1999, dated 2006):
Read-outs that look alike come from different tables or passages of the source.

What was measured:
[1] = target: T1, c-kit (Homo sapiens, UniProt P10721); assay: Inhibitory activity against c-kit autophosphorylation (MO7e cells, h-SCF); format: cell-based; settings: for IC50: MO7e cells, read-out: c-kit IC50; for inhibition at 1 µM: Mo7e
T1 construct: MO7e (human megakaryocytic leukemia cell line) which had been arrested for 20 hr; endogenous in cells; host or cells: MO7e human megakaryocytic leukemia cell line
T1 sequence (P10721 26-976): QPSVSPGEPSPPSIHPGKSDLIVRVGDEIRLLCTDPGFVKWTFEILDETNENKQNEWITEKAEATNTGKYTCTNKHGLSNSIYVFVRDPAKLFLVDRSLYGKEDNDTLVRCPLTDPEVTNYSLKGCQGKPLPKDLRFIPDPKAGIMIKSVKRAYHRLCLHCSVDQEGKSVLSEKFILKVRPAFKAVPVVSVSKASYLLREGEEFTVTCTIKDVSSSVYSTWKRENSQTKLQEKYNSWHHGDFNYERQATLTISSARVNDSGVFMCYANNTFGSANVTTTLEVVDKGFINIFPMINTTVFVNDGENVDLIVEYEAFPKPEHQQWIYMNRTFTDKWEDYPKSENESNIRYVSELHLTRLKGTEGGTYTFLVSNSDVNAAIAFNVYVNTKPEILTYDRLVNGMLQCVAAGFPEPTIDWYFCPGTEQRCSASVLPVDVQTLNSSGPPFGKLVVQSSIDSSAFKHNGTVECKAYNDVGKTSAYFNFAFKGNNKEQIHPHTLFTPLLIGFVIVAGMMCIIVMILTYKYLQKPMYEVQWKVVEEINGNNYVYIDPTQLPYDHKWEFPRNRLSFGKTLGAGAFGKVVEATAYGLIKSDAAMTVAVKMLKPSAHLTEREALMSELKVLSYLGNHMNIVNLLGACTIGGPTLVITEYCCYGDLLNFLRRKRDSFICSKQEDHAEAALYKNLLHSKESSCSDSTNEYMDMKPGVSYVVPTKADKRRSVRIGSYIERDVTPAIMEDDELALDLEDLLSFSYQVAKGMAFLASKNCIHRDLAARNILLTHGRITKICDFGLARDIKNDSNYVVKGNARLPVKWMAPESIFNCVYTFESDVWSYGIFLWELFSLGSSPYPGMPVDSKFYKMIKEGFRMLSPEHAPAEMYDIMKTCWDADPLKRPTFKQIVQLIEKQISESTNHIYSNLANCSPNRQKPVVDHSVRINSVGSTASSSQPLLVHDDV
Summary of the method: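 First, human megakaryocytic leukemia MO7e cells arrested 20 hr receive compound for one hour. Second, SCF stimulation (50 ng/ml) runs 5 min, after which cells are solubilized. Third, tyrosine-phosphorylated c-kit in the lysate is quantified by sandwich ELISA with absorbance at 450 nm.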

[2] = target: T2, PDGF-Ra (Homo sapiens, UniProt P16234); assay: Inhibitory activity against PDGF-Ra phosphorylation by PDGF-AA stimulation using G292; format: cell-based; settings: for IC50: > means inhibition at indicated concentration not more than 50%, < and << not less than 50%, read-out: PDGF (E) IC50; for inhibition at 0.1 µM: G292, at 100 nM, read-out: PDGF (E) inhibition (%) at 100 nM
T2 construct: host or cells: G-292 human osteosarcoma cells
T2 sequence (P16234 24-1089): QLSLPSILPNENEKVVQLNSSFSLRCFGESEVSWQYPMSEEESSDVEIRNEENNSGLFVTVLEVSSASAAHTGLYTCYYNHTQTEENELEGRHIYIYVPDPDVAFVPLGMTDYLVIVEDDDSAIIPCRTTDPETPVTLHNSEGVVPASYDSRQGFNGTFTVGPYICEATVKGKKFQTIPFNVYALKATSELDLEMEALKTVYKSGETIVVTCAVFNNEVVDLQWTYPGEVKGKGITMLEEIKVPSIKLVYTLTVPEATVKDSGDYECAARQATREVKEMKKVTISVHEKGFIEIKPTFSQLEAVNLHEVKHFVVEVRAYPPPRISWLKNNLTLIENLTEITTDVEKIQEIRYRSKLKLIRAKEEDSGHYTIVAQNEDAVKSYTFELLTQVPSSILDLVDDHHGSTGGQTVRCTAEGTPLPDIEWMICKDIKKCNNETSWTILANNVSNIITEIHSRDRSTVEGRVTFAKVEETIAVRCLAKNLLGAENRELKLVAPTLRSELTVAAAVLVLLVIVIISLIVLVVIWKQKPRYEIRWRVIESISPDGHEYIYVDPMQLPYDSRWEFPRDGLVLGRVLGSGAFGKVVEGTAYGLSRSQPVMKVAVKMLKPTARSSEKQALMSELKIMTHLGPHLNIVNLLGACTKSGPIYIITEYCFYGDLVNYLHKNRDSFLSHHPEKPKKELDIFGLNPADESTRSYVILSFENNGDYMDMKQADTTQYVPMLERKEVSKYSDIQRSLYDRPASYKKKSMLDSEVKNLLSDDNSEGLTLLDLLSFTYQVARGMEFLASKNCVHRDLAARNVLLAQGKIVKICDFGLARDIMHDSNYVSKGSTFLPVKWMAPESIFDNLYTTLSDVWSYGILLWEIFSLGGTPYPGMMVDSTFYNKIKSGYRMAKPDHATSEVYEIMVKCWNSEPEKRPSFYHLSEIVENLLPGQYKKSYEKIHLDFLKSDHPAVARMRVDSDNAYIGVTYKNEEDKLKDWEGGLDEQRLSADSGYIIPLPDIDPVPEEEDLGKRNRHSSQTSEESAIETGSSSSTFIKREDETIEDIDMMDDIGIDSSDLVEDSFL
Summary of the method: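 G-292 human osteosarcoma cells in 0.1% FBS medium overnight, given compound for 1 hr at 37° C, then PDGF-AA 50 ng/ml for 5 min. Lysates captured on anti-phosphotyrosine (PY-20) plates and probed with anti-PDGF-Ra plus HRP secondary; absorbance at 450 nm.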

[3] = figure within parentheses in >100( )
[4] = figure within parentheses in −( ) or >1000( ), at 1000 nM
[5] = figure in parentheses in >100( )
[6] = figure in parentheses in −( ), at 1000 nM

SMILES	IC50 ([1]; 50 ng/ml h-SCF)	IC50 [2]	other results
COc1cc2ncnc(Oc3ccc(NC(=O)NN4CCCCC4)cc3)c2cc1OC [Example 603, N-{4-[(6,7-Dimethoxy-4-quinazolinyl)oxy]phenyl}-N′-(1-piperidinyl)urea]	864 nM	> 100 nM	inhibition at 0.1 µM [2, 3]: 42%
COc1cc(Oc2ncnc3cc(OC)c(OC)cc23)ccc1NC(=O)OC1CCCCCC1 [Example 498, Cycloheptyl N-{4-[(6,7-dimethoxy-4-quinazolinyl)oxy]-2-methoxyphenyl}carbamate]	140 nM	< 10 nM	–
COc1cc(Oc2ccnc3cc(OC)c(OC)cc23)ccc1NC(=O)NCCN(C(C)C)C(C)C [Example 672, N-[2-(Diisopropylamino)ethyl]-N′-{4-[(6,7-dimethoxy-4-quinolyl)oxy]-2-methoxyphenyl}urea]	–	53 nM	inhibition at 1 µM [1, 4]: 9%
COc1cc2nccc(Oc3ccc(NC(=S)NC(=O)Cc4ccccc4)c(C)c3C)c2cc1OC [Example 1105, N-{4-[(6,7-Dimethoxy-4-quinolyl)oxy]-2,3-dimethylphenyl}-N′-(2-phenylacetyl)thiourea]	–	> 100 nM	c-kit inhibition (%) at 1000 nM ([1]; figure in parentheses in −( ), at 1000 nM, 1 µM): −(1) %; inhibition at 0.1 µM [2, 5]: 31%
COc1cc2nccc(Oc3ccc(NC(=O)OCCCOc4ccccc4OC)cc3)c2cc1OC [Example 157, 3-(2-Methoxyphenoxy)propyl N-{4-[(6,7-dimethoxy-4-quinolyl)oxy]phenyl}carbamate]	–	–	IC50 ([1]; h-SCF 50 ng/ml): 35 nM; IC50 ([2]; Pharmacological Test Example 1): < 10 nM
COc1cc2nccc(Oc3ccc(NC(=S)NC(=O)Cc4cccc5ccccc45)cc3Cl)c2cc1OC [Example 708, N-{3-Chloro-4-[(6,7-dimethoxy-4-quinolyl)oxy]phenyl}-N′-[2-(1-naphthyl)acetyl]thiourea]	348 nM	51 nM	–
CCCC(CCN1CCOCC1)OC(=O)Nc1ccc(Oc2ccnc3cc(OC)c(OC)cc23)cc1 (stereo not drawn) [Example 437, 1-(2-Morpholinoethyl)butyl N-{4-[(6,7-dimethoxy-4-quinolyl)oxy]phenyl}carbamate]	250 nM	48 nM	–
COc1cc2nccc(Oc3ccc(NC(=O)OC(C)c4cccc(N(C)C)c4)c(C)c3C)c2cc1OC (stereo not drawn) [Example 200, 1-[3-(Dimethylamino)phenyl]ethyl N-{4-[(6,7-dimethoxy-4-quinolyl)oxy]-2,3-dimethylphenyl}-carbamate]	–	–	IC50 ([1]; h-SCF 50 ng/ml): 329 nM; IC50 ([2]; Pharmacological Test Example 1): 31 nM
CCCCc1ccc(C(=O)NC(=S)Nc2ccc(Oc3ccnc4cc(OC)c(OC)cc34)c(F)c2)cc1 [Example 999, N-(4-Butylbenzoyl)-N′-{4-[(6,7-dimethoxy-4-quinolyl)oxy]-3-fluorophenyl}thiourea]	–	29 nM	inhibition at 1 µM [1, 6]: 45%
COc1cc2ncnc(Oc3ccc(NC(=O)OCc4ccncc4)cc3)c2cc1OC [Example 434, 4-Pyridylmethyl N-{4-[(6,7-dimethoxy-4-quinazolinyl)oxy]phenyl}carbamate]	< 30 nM	20 nM	–
C=CCOC(=O)Nc1cc(C)c(Oc2ccnc3cc(OC)c(OC)cc23)cc1C [Example 373, Allyl N-{4-[(6,7-dimethoxy-4-quinolyl)oxy]-2,5-dimethylphenyl}carbamate]	–	–	IC50 ([1]; h-SCF 50 ng/ml): 71 nM; IC50 ([2]; Pharmacological Test Example 1): 43 nM
COc1ccccc1CC(=O)NC(=S)Nc1ccc(Oc2ccnc3cc(OC)c(OC)cc23)cc1 [Example 733, N-{4-[(6,7-Dimethoxy-4-quinolyl)oxy]phenyl}-N′-[2-(2-methoxyphenyl)acetyl]thiourea]	186 nM	29 nM	–
CCCCN(CCCC)CCNC(=O)Nc1ccc(Oc2ccnc3cc(OC)c(OC)cc23)cc1OC [Example 689, N-[2-(Dibutylamino)ethyl]-N′-{4-[(6,7-dimethoxy-4-quinolyl)oxy]-2-methoxyphenyl}urea]	571 nM	> 100 nM	inhibition at 0.1 µM [2, 3]: 42%
CCCc1ccc(C(=O)NC(=S)Nc2ccc(Oc3ccnc4cc(OC)c(OC)cc34)c(F)c2)cc1 [Example 998, N-{4-[(6,7-Dimethoxy-4-quinolyl)oxy]-3-fluorophenyl}-N′-(4-propylbenzoyl)thiourea]	–	25 nM	IC50 ([1]; h-SCF stimulation): 591 nM
COc1cc2nccc(Oc3ccc(NC(=S)NC(=O)c4ccc(-c5ccccc5)cc4)c(F)c3)c2cc1OC [Example 1125, N-(4-Phenylbenzoyl)-N′-{4-[(6,7-dimethoxy-4-quinolyl)oxy]-2-fluorophenyl}thiourea]	–	> 100 nM	inhibition at 1 µM [1, 6]: 8%; inhibition at 0.1 µM [2, 5]: 22%
COc1cc(Oc2ncnc3cc(OC)c(OC)cc23)ccc1NC(=O)NCCN1CCOCC1 [Example 631, N-{4-[(6,7-Dimethoxy-4-quinazolinyl)oxy]-2-methoxyphenyl}-N′-(2-morpholinoethyl)urea]	186 nM	39 nM	–
COc1cc2nccc(Oc3cc(C)c(NC(=O)Oc4ccccc4OC)cc3C)c2cc1OC [Example 278, 2-Methoxyphenyl N-{4-[(6,7-dimethoxy-4-quinolyl)oxy]-2,5-dimethylphenyl}carbamate]	–	–	IC50 ([1]; h-SCF 50 ng/ml): 289 nM; IC50 ([2]; Pharmacological Test Example 1): 53 nM
COc1cc2nccc(Oc3ccc(NCCCOc4ccccc4C)cc3)c2cc1OC [Example 888, N-{4-[(6,7-Dimethoxy-4-quinolyl)oxy]phenyl}-N-[3-(2-methylphenoxy)propyl]amine]	–	12 nM	IC50 ([1]; h-SCF stimulation): 385 nM
COc1cc2nccc(Oc3ccc(NC(=O)Oc4ccccc4C(C)(C)C)cc3)c2cc1OC [Example 300]	–	–	inhibition at 1 µM [1, 6]: 43%; IC50 ([2]; Pharmacological Test Example 1): < 10 nM
COc1cc2nccc(Oc3ccc(NC(=O)OCCN4CCOCC4)cc3)c2cc1OC [Example 306, 2-Morpholinoethyl N-{4-[(6,7-dimethoxy-4-quinolyl)oxy]phenyl}carbamate]	–	–	IC50 ([1]; h-SCF 50 ng/ml): 72 nM; IC50 ([2]; Pharmacological Test Example 1): 11 nM
COc1cc2ncnc(Oc3ccc(NC(=S)NC(=O)Cc4ccccc4)cc3)c2cc1OC [Example 1148, N-{4-[(6,7-Dimethoxy-4-quinazolinyl)oxy]phenyl}-N′-(2-phenylacetyl)thiourea]	–	< 10 nM	IC50 ([1]; h-SCF stimulation): 42 nM
COc1cc2ncnc(Oc3ccc(NC(=O)OC(C)c4cccc(F)c4)cc3)c2cc1OC (stereo not drawn) [Example 100, 1-(3-Fluorophenyl)ethyl N-{4-[(6,7-dimethoxy-4-quinazolinyl)oxy]phenyl}carbamate]	–	–	IC50 ([1]; h-SCF 50 ng/ml): 815 nM; IC50 ([2]; Pharmacological Test Example 1): 14 nM
COc1cc2nccc(Oc3ccc(NC(=S)NC(=O)Cc4ccc5ccccc5c4)cc3Cl)c2cc1OC [Example 710, N-{3-Chloro-4-[(6,7-dimethoxy-4-quinolyl)oxy]phenyl}-N′-[2-(2-naphthyl)acetyl]thiourea]	–	> 100 nM	inhibition at 1 µM [1, 4]: 30%; inhibition at 0.1 µM [2, 3]: 33%
COc1cc2nccc(Oc3ccc(NC(=O)NCCN4CCCCC4)c([N+](=O)[O-])c3)c2cc1OC [Example 678, N-{4-[(6,7-Dimethoxy-4-quinolyl)oxy]-2-nitrophenyl}-N′-(2-piperidinoethyl)urea]	164 nM	< 10 nM	–
COc1cc2ncnc(Oc3ccc(NC(=S)NCCN4CCOCC4)cc3)c2cc1OC [Example 527, N-{4-[(6,7-Dimethoxy-4-quinazolinyl)oxy]phenyl}-N′-[2-(1-morpholinyl)ethyl]thiourea]	875 nM	65 nM	–
COc1cc2nccc(Oc3ccc(NC(=O)NC4CCN(Cc5ccccc5C)C4)c(C)c3C)c2cc1OC (stereo not drawn) [Example 572, N-{4-[(6,7-Dimethoxy-4-quinolyl)oxy]-2,3-dimethylphenyl}-N′-[1-(2-methylbenzyl)tetrahydro-1H-3-pyrrolyl]urea]	262 nM	64 nM	–
